No end group written: not given here.
Experiments:
HEK293T [1] = experiment: Mammalian cell cytotoxicity, WST-1; assay type: cell-based, human; details: 24 h, WST-1, triplicate
Description: (§1) Two mammalian cell lines, including human embryonic kidney cells (HEK293T) and human breast cancer cells (MCF7) were cultured in Dulbecco’s modified Eagle’s medium (DMEM; Hyclone^TM, Logan, UT, United States) supplemented with 10% FBS (Hyclone^TM) and 1% penicillin/streptomycin (Hyclone^TM) and incubated at 37°C and 5% CO2 up to 80% confluence. Cellular adherence to the substratum was disrupted using Accutase (Innovative Cell Technologies, San Diego, CA, United States). In total, 1 × 10^4 to 4 × 10^4 cells in each well of a 96-well plate containing 8, 16, 32, and 64 μg/mL of ModoCath peptides were incubated for 24 h at 37°C and 5% CO2. Additionally, HEK293T cells were incubated in the FBS-free medium. Triton X 100 (Sigma Aldrich) was used as a positive control for complete cell lysis, and untreated cells were used as the negative control. After incubation, the medium was removed from the wells, and 10 μL of coloring solution (Cell Proliferation Reagent WST-1^TM; Sigma Aldrich) and 100 μL of DMEM (Hyclone^TM) were added to the wells in accordance with the manufacturer’s protocol. Absorbance was measured for each well at 440 nm (peptide-treated and control) and 650 nm (background) and recorded as the OD, using a microplate reader (xMark^TM spectrophotometer; Bio-Rad). Cell viability was calculated using the following equation:
(§2) (1) CellViability(%)=100×(ODpeptide-ODbackground)/(ODnegative-ODbackground)
(§3) All experiments were performed in triplicate.

MCF7 = experiment: Mammalian cell cytotoxicity, WST-1; assay type: cell-based, human; details: 24 h, WST-1, triplicate
Description: as §1, §2, §3

HEK293T [2] = experiment: Mammalian cell cytotoxicity, WST-1, FBS-free medium; assay type: cell-based, human; details: HEK293T cells, mean ± SD, triplicated
Description: as §1, §2, §3

E. coli (ATCC 25922) = experiment: Serum stability: antimicrobial activity after incubation in human serum; assay type: in vitro ADME, Escherichia coli; details: for antimicrobial activity after incubation with human serum: 25% (v/v) pooled human serum, 37°C, activity against E. coli, OD 450 nm, triplicate; for antimicrobial activity after incubation with serum: 25% pooled human serum, 0, 60 and 120 min, Figure S6
Description: Antimicrobial peptides were dissolved in 25% (v/v) pooled human serum from five individuals, and incubated at 37°C. Aliquots were extracted in triplicate after 0, 60, and 120 min incubation, and their antimicrobial activity against E. coli (ATCC 25922) was assessed using the incubated samples, as described above.

[3] = system: HEK293T and MCF7 cells and human primary keratinocytes; experiment: Cytotoxicity, summary over all tested cells; assay type: cell-based; details: at concentrations below 16 μg/mL
Description: as §1, with “Triton X 100 (Sigma Aldrich) was used as a positive control for complete cell lysis, and untreated cells were used as the negative control. After incubation, the medium was removed from the wells, and 10 μL of coloring solution (Cell Proliferation Reagent WST-1^TM; Sigma Aldrich) and 100 μL of DMEM (Hyclone^TM) were added to the wells in accordance with the manufacturer’s protocol.” left out, “equation: […]” for “equation:”
Primary keratinocytes were cultured in 96-well plates at 4 × 10^4 cells per well in 0.1 mL K-SFM (Invitrogen) up to 80% confluence before being treated with various concentrations of ModoCath peptides for 24 h. Cell viability was assessed using the cell proliferation kit II (XTT; Roche, Basel, Switzerland) in accordance with the manufacturer’s protocol. […]

[4] = at a higher concentration than 1x MIC

| Sequence | Cell viability ± SD (HEK293T [1]; 8 μg/mL, 37°C) | Cell viability ± SD (HEK293T [1]; 16 μg/mL) | Cell viability ± SD (HEK293T [1]; 32 μg/mL) | Cell viability ± SD (HEK293T [1]; 64 μg/mL) | Cell viability ± SD (MCF7; 8 μg/mL) | Cell viability ± SD (MCF7; 16 μg/mL) | Cell viability ± SD (MCF7; 32 μg/mL) | Cell viability ± SD (MCF7; 64 μg/mL) | Cell viability ± SD (%) Serum negative (HEK293T [2]; peptide 8 ㎍/㎖) | Cell viability ± SD (%) Serum negative (HEK293T [2]; peptide 16 ㎍/㎖) | Cell viability ± SD (%) Serum negative (HEK293T [2]; peptide 32 ㎍/㎖) | Cell viability ± SD (%) Serum negative (HEK293T [2]; peptide 64 ㎍/㎖) | antimicrobial activity after incubation with human serum (E. coli (ATCC 25922); 60 min, at >∼2× MIC) | antimicrobial activity after incubation with human serum (E. coli (ATCC 25922); 120 min) | antimicrobial activity after incubation with serum (E. coli (ATCC 25922); at 1x MIC) | antimicrobial activity after incubation with serum (E. coli (ATCC 25922); [4]) | Cell survivability [3] |
| --- | --- | --- | --- | --- | --- | --- | --- | --- | --- | --- | --- | --- | --- | --- | --- | --- | --- |
| VKRTKRGARRGLTKVLKKIFGSIVKKAVSKGV [ΔModoCath1] | 108.1 ± 9.9% | 105.5 ± 6.9% | 66.9 ± 5.0% | 55.7 ± 6.2% | 91.2 ± 2.5% | 89.2 ± 0.6% | 79.1 ± 1.8% | 42.4 ± 2.1% | 109.5±9.8% | 103.7±6.9% | 69.5±7.9% | 55.9±4.4% | unaffected | decreased | highly affected | considerably stable | > 90% |
| VRRSKRGIKVPSFVKKVLKDVVSESIS [ΔModoCath6] | 103.8 ± 5.0% | 95.6 ± 8.4% | 89.0 ± 13.1% | 88.8 ± 8.1% | 89.2 ± 1.4% | 93.2 ± 0.9% | 92.8 ± 1.0% | 95.2 ± 1.0% |  |  |  |  |  |  |  |  | > 90% |
| WYQLIRTFGNLIHQKYRKLLEAYRKLRD [ΔModoCath5] | 93.7 ± 8.3% | 67.4 ± 3.1% | 47.8 ± 2.7% | 35.0 ± 0.8% | 98.4 ± 4.2% | 84.6 ± 0.6% | 28.4 ± 0.7% | 10.3 ± 2.8% | 98.6±6.5% | 63.5±5.2% | 39.3±7.6% | 34.0±1.6% | unaffected | decreased | highly affected | considerably stable |  |

— PMC7063992, “Opossum Cathelicidins Exhibit Antimicrobial Activity Against a Broad Spectrum of Pathogens Including West Nile Virus” (Frontiers in Immunology, 2020)
